Laboratory results from patent publication US20240398805A1, “QUINAZOLINE DERIVED COMPOUNDS AS EGFR INHIBITORS AND THEIR USES THEREOF” (ACCUTAR BIOTECHNOLOGY INC., priority 2021, published 2024).

How the values were obtained:
Format in all cases: cell-based
[1] = tested on: HCC827-SVD cells (human EGFR exon 20 insertion mutant D770_N771 insSVD); assay: Cell growth inhibition (CellTiter-Glo, 3 days) in HCC827-SVD; conditions: 72 h, 3 days after administration
Outline: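 HCC827 cells carrying lentiviral codon-optimized EGFR D770_N771 insSVD, with endogenous EGFR knocked out by CRISPR (single clone), seeded at 5000 cells/well in RPMI with 10% FBS. Viability read by CellTiter-Glo luminescence.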

[2] = tested on: HCC827 cells; assay: Cell growth inhibition (CellTiter-Glo, 3 days) in HCC827; conditions: Homo sapiens, 72 h, 3 days after administration
Outline: (§1)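 HCC827 cells in RPMI/10% FBS and A431 cells in DMEM/10% FBS were seeded at 5000 cells/well and left overnight. Compound was then added over a concentration range for 3 days of incubation, and viability was read by CellTiter-Glo luminescence.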

[3] = tested on: HCC827-ASV cells (human EGFR exon 20 insertion mutant A769_D770insASV); assay: Cell growth inhibition (CellTiter-Glo, 3 days) in HCC827-ASV; conditions: 72 h, 3 days after administration
Outline: (§2)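 Growth inhibition used a CellTiter-Glo luminescence read-out after 3 days of compound exposure at various concentrations. Cells were plated the day before at 5000/well in RPMI plus 10% FBS. The lines are HCC827 transduced by lentivirus with codon-optimized EGFR ASV or ERBB2 YVMA exon 20 insertions.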

[4] = tested on: HCC827-YVMA cells (human ERBB2 exon20 insertion mutant A775_G776ins YVMA); assay: Cell growth inhibition (CellTiter-Glo, 3 days) in HCC827-YVMA; conditions: 72 h, 3 days after administration
Outline: as §2

[5] = tested on: A431 cells; assay: Cell growth inhibition (CellTiter-Glo, 3 days) in A431; conditions: Homo sapiens, A-431, 72 h, 3 days after administration
Outline: as §1

SMILES	GI50 [1] [nM]	GI50 [2] [nM]	GI50 [3] [nM]	GI50 [4] [nM]	GI50 [5] [nM]
C=CC(=O)N1CCC(Nc2cc3c(Nc4ccc(Oc5ccnc(N(C)CCOC)c5)cc4F)ncnc3cc2OC)CC1 [Example 116, 1-(4-((4-((2-fluoro-4-((2-((2-methoxyethyl)(methyl)amino)pyridin-4-yl)oxy)phenyl)amino)-7-methoxyquinazolin-6-yl)amino)piperidin-1-yl)prop-2-en-1-one]	100 to 300	300 to 600	100 to 300	60 to 100	600 to 1000
C=CC(=O)N1CCC(Nc2cc3c(Nc4ccc(Oc5ccnc(N(CCOC)CCOC)c5)cc4F)ncnc3cc2OC)CC1 [Example 117, 1-(4-((4-((4-((2-(bis(2-methoxyethyl)amino)pyridin-4-yl)oxy)-2-fluorophenyl)amino)-7-methoxyquinazolin-6-yl)amino)piperidin-1-yl)prop-2-en-1-one]	100 to 300	300 to 600	100 to 300	60 to 100	≥ 1000
C=CC(=O)N1CCC(Nc2cc3c(Nc4ccc(Oc5ccnc(N6CC7(COC7)C6)c5)cc4F)ncnc3cc2OC)CC1 [Example 118, 1-(4-((4-((4-((2-(2-oxa-6-azaspiro[3.3]heptan-6-yl)pyridin-4-yl)oxy)-2-fluorophenyl)amino)-7-methoxyquinazolin-6-yl)amino)piperidin-1-yl)prop-2-en-1-one]	30 to 60	300 to 600	30 to 60	30 to 60	≥ 1000
C=CC(=O)N1CCC(Nc2cc3c(Nc4ccc(Oc5ccnc(N6CC(OC)C6)c5)cc4F)ncnc3cc2OC)CC1 [Example 119, 1-(4-((4-((2-fluoro-4-((2-(3-methoxyazetidin-1-yl)pyridin-4-yl)oxy)phenyl)amino)-7-methoxyquinazolin-6-yl)amino)piperidin-1-yl)prop-2-en-1-one]	100 to 300	300 to 600	60 to 100	100 to 300	100 to 300
C=CC(=O)N1CCC(Nc2cc3c(Nc4ccc(Oc5ccnc(N6CCN(C(C)=O)CC6)c5)cc4F)ncnc3cc2OC)CC1 [Example 120, 1-(4-((4-((4-((2-(4-acetylpiperazin-1-yl)pyridin-4-yl)oxy)-2-fluorophenyl)amino)-7-methoxyquinazolin-6-yl)amino)piperidin-1-yl)prop-2-en-1-one]	100 to 300	≥ 1000	100 to 300	600 to 1000	≥ 1000
C=CC(=O)N1CCC(Nc2cc3c(Nc4ccc(Oc5ccnc(N6CCC(O)CC6)c5)cc4F)ncnc3cc2OC)CC1 [Example 121, 1-(4-((4-((2-fluoro-4-((2-(4-hydroxypiperidin-1-yl)pyridin-4-yl)oxy)phenyl)amino)-7-methoxyquinazolin-6-yl)amino)piperidin-1-yl)prop-2-en-1-one]	< 30	300 to 600	< 30	< 30	≥ 1000
C=CC(=O)N1CCC(Nc2cc3c(Nc4ccc(Oc5ccnc(N6CCC(N(C)C)CC6)c5)cc4F)ncnc3cc2OC)CC1 [Example 122, 1-(4-((4-((4-((2-(4-(dimethylamino)piperidin-1-yl)pyridin-4-yl)oxy)-2-fluorophenyl)amino)-7-methoxyquinazolin-6-yl)amino)piperidin-1-yl)prop-2-en-1-one]	600 to 1000	600 to 1000	600 to 1000	≥ 1000	≥ 1000
C=CC(=O)N1CCC(Nc2cc3c(Nc4ccc(Oc5ccnc(N6CCNCC6)c5)cc4F)ncnc3cc2OC)CC1 [Example 123, 1-(4-((4-((2-fluoro-4-((2-(piperazin-1-yl)pyridin-4-yl)oxy)phenyl)amino)-7-methoxyquinazolin-6-yl)amino)piperidin-1-yl)prop-2-en-1-one]	300 to 600	≥ 1000	300 to 600	600 to 1000	≥ 1000
C=CC(=O)N1CCC(Nc2cc3c(Nc4ccc(Oc5ccnc(N6CCO[C@@H](CO)C6)c5)cc4F)ncnc3cc2OC)CC1 [Example 124, (R)-1-(4-((4-((2-fluoro-4-((2-(2-(hydroxymethyl)morpholino)pyridin-4-yl)oxy)phenyl)amino)-7-methoxyquinazolin-6-yl)amino)piperidin-1-yl)prop-2-en-1-one]	30 to 60	600 to 1000	30 to 60	60 to 100	≥ 1000
C=CC(=O)N1CCC(Nc2cc3c(Nc4ccc(Oc5ccnc(N6CCO[C@H](CO)C6)c5)cc4F)ncnc3cc2OC)CC1 [Example 125, (S)-1-(4-((4-((2-fluoro-4-((2-(2-(hydroxymethyl)morpholino)pyridin-4-yl)oxy)phenyl)amino)-7-methoxyquinazolin-6-yl)amino)piperidin-1-yl)prop-2-en-1-one]	300 to 600	≥ 1000	100 to 300	100 to 300	≥ 1000
C=CC(=O)N1CCC(Nc2cc3c(Nc4ccc(Oc5ccnc(N6CCOC[C@H]6CO)c5)cc4F)ncnc3cc2OC)CC1 [Example 126, (R)-1-(4-((4-((2-fluoro-4-((2-(3-(hydroxymethyl)morpholino)pyridin-4-yl)oxy)phenyl)amino)-7-methoxyquinazolin-6-yl)amino)piperidin-1-yl)prop-2-en-1-one]	100 to 300	≥ 1000	60 to 100	100 to 300	≥ 1000
C=CC(=O)N1CCC(Nc2cc3c(Nc4ccc(Oc5ccnc(N6CCOC[C@@H]6CO)c5)cc4F)ncnc3cc2OC)CC1 [Example 127, (S)-1-(4-((4-((2-fluoro-4-((2-(3-(hydroxymethyl)morpholino)pyridin-4-yl)oxy)phenyl)amino)-7-methoxyquinazolin-6-yl)amino)piperidin-1-yl)prop-2-en-1-one]	100 to 300	600 to 1000	100 to 300	100 to 300	≥ 1000
C=CC(=O)N1CCC(Nc2cc3c(Nc4ccc(Oc5ccnc(N6CCC(C)(O)CC6)c5)cc4F)ncnc3cc2OC)CC1 [Example 128, 1-(4-((4-((2-fluoro-4-((2-(4-hydroxy-4-methylpiperidin-1-yl)pyridin-4-yl)oxy)phenyl)amino)-7-methoxyquinazolin-6-yl)amino)piperidin-1-yl)prop-2-en-1-one]	60 to 100	300 to 600	100 to 300	100 to 300	≥ 1000
C=CC(=O)N1CCC(Nc2cc3c(Nc4ccc(Oc5ccnc(N6CCC(C)(OC)CC6)c5)cc4F)ncnc3cc2OC)CC1 [Example 129, 1-(4-((4-((2-fluoro-4-((2-(4-methoxy-4-methylpiperidin-1-yl)pyridin-4-yl)oxy)phenyl)amino)-7-methoxyquinazolin-6-yl)amino)piperidin-1-yl)prop-2-en-1-one]	60 to 100	300 to 600	30 to 60	60 to 100	≥ 1000
C=CC(=O)N1CCC(Nc2cc3c(Nc4ccc(Oc5ccnc(N6CC7CCC(C6)O7)c5)cc4F)ncnc3cc2OC)CC1 [Example 130, 1-(4-((4-((4-((2-(8-oxa-3-azabicyclo[3.2.1]octan-3-yl)pyridin-4-yl)oxy)-2-fluorophenyl)amino)-7-methoxyquinazolin-6-yl)amino)piperidin-1-yl)prop-2-en-1-one]	30 to 60	100 to 300	30 to 60	30 to 60	300 to 600
C=CC(=O)N1CCC(Nc2cc3c(Nc4ccc(Oc5ccnc(N6C[C@@H]7C[C@H]6CO7)c5)cc4F)ncnc3cc2OC)CC1 [Example 131, 1-(4-((4-((4-((2-((1S,4S)-2-oxa-5-azabicyclo[2.2.1]heptan-5-yl)pyridin-4-yl)oxy)-2-fluorophenyl)amino)-7-methoxyquinazolin-6-yl)amino)piperidin-1-yl)prop-2-en-1-one]	60 to 100	600 to 1000	30 to 60	60 to 100	≥ 1000
C=CC(=O)N1CCC(Nc2cc3c(Nc4ccc(Oc5ccnc(N6CCO[C@@H](C)C6)c5)cc4F)ncnc3cc2OC)CC1 [Example 132, (S)-1-(4-((4-((2-fluoro-4-((2-(2-methylmorpholino)pyridin-4-yl)oxy)phenyl)amino)-7-methoxyquinazolin-6-yl)amino)piperidin-1-yl)prop-2-en-1-one]	< 30	100 to 300	< 30	< 30	600 to 1000
C=CC(=O)N1CCC(Nc2cc3c(Nc4ccc(Oc5ccnc(N6CCO[C@H](C)C6)c5)cc4F)ncnc3cc2OC)CC1 [Example 133, (R)-1-(4-((4-((2-fluoro-4-((2-(2-methylmorpholino)pyridin-4-yl)oxy)phenyl)amino)-7-methoxyquinazolin-6-yl)amino)piperidin-1-yl)prop-2-en-1-one]	< 30	100 to 300	< 30	< 30	600 to 1000
C=CC(=O)N1CCC(Nc2cc3c(Nc4ccc(Oc5ccnc(N6C[C@H]7C[C@@H]6CO7)c5)cc4F)ncnc3cc2OC)CC1 [Example 134, 1-(4-((4-((4-((2-((1R,4R)-2-oxa-5-azabicyclo[2.2.1]heptan-5-yl)pyridin-4-yl)oxy)-2-fluorophenyl)amino)-7-methoxyquinazolin-6-yl)amino)piperidin-1-yl)prop-2-en-1-one]	30 to 60	100 to 300	< 30	30 to 60	600 to 1000
